The test system of data set [1] is rat IPMK. Also on record: method as in PMID 24670057. To be noted: read-out: Km of rat IPMK for ATP; IP3 used as the substrate; cited from earlier work.
Data set [2] addresses T1, HsIPMK (Homo sapiens, UniProt Q8NFU5). Conditions: read-out: Km for ATP, HsIPMK, cited from earlier work.
Data set [3] concerns the target CaIpk2 (Candida albicans, UniProt Q59YE9). To be noted: 200 µM IP3, ATP 25–400 µM. Here is the method: (§1) The kinetic properties of the purified recombinant enzymes were determined and compared using a Kinase-Glo® Max Luminescent Kinase Assay kit (Promega, Madison, WI, USA) in a reaction buffer consisting of 20 mM HEPES pH 6.8, 100 mM NaCl, 6 mM MgCl2, 20 µg/mL BSA, 1 mM DTT [14]. The IP3 concentration was fixed at 200 µM. The ATP starting concentrations ranged between 25 µM to 400 µM and the ATP remaining after up to 10-min reaction time was assessed by adding Kinase-Glo® reagent. An ATP standard curve (0–500 µM) was also generated using the same kit. The ATP concentration remaining was measured as luminescence using a SpectraMax iD5 plate reader. The relative luminescence unit (RLU) was converted to ATP concentration using the ATP standard curve. The reaction velocity was calculated for each starting ATP concentration and the data was fitted to the Michaelis-Menten equation using GraphPad Prism 9 to obtain Vmax and Km values.

The target of data set [4] is T1, HsIPMK. Conditions: 200 µM IP3, ATP 25–400 µM. Here is the method: as §1
Data set [5] deals with T1, HsIPMK. In words: Kinase-Glo enzyme inhibition assay, recombinant HsIPMK. Further: 6 ng/µL enzyme. Also on record: GST (N, cleaved yes); made in house; host or cells: E. coli BL21 (DE3); plasmid made by GenScript. In kind it is biochemical. The method, then:
(§2) The 2,6-disubstituted purine compounds are ATP-competitive IPK inhibitors. […] The amount of IP3 and kinase used for each recombinant enzyme was determined following the manufacturer’s instructions, and this concentration was used to assess the inhibitory properties of TNP analogues against each of the recombinant enzymes.
(§3) The analogues were dissolved in DMSO. For the assay, the inhibitors were added to the reaction mixture to achieve a final concentration of 50 µM in 5% DMSO (1:20 dilution). To achieve inhibitor concentrations lower than 50 µM in the assay, the inhibitor stock was first serially diluted two-fold in DMSO and added to the reaction mixture, to achieve concentrations ranging between 0.8 μM and 50 µM in 5% DMSO. Once all analogues and their dilution series had been added, the reaction was started by adding an optimal amount of recombinant IP3-4K enzyme. The reaction was stopped after 10-min incubation at room temperature by adding a 50 µL of Kinase-Glo® reagent. The mixture was incubated at room temperature in the dark for 10–15 min. Luminescence (RLU) was measured using a SpectraMax iD5 and an integration time of 0.5 s. Percent enzyme activity was defined as (RLUnegative − RLUsample)/(RLUnegative − RLUpositive) × 100. ‘Positive’ refers to 100% enzyme activity (no inhibitor used as the positive control), while ‘negative’ refers to 0% enzyme activity (no enzyme used as the negative control).
(§4) Next, we determined the inhibitory properties of TNP. TNP is an ATP-competitive inhibitor [34]. […] IP3 and enzyme concentrations were also optimised following the manufacturer’s instructions. […] This optimal amount of IP3 was then used to test varying concentrations of the kinase ranging from 0 to 20 ng/µL. The amount of kinase that produced luminescence values in the linear range of the kinase titration curve was deemed to be the optimal kinase amount.
A general note: In Kinase-Glo more light means more ATP remaining.

Data set [6] has as its system CnArg1 (IP3-4K from C. neoformans). In words: Kinase-Glo enzyme inhibition assay, recombinant CnArg1. In kind it is biochemical. To be noted: selectivity, ratio higher than 1 = more selective for CnArg1. The method, then:
as §2, §3, §4

For data set [7], the target named is CnArg1 (IP3-4K from C. neoformans) (Cryptococcus neoformans var. grubii, UniProt J9W3G0). The data set is described as above. It counts as biochemical. To be noted: 10 µM ATP, 50 µM IP3, 2.5 ng/µL enzyme, 10 min, room temperature, 5% DMSO; mean ± SEM. Here is the method: as §2, §3, §4
Sequence of CnArg1 (IP3-4K from C. neoformans) (Cryptococcus neoformans var. grubii, UniProt J9W3G0) (J9W3G0 entry or part of it): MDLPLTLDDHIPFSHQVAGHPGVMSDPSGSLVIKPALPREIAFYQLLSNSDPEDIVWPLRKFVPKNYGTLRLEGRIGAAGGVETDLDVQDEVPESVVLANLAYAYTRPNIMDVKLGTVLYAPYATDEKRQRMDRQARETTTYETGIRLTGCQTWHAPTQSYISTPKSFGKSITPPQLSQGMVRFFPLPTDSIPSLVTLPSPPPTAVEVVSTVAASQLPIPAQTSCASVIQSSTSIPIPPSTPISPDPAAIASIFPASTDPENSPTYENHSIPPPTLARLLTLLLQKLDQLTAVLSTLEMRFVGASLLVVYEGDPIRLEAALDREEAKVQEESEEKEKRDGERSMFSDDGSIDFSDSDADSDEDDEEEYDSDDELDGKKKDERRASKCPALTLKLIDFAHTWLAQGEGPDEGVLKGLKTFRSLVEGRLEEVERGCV
The nature of data set [8]: Solubility observations. It counts as physicochemical. Conditions: for Solubility in SPR analysis: SPR running buffer with 5% DMSO, KD could not be determined; for Solubility in enzyme assay conditions: 5% DMSO.
The target in data set [9] is CnArg1 (Cryptococcus neoformans var. grubii, UniProt J9W3G0). In words: Surface plasmon resonance (SPR) binding to immobilised CnArg1. To be noted: 6.25–200 µM, 10 °C, steady-state affinity, mean ± SEM. The method, then: SPR was carried out on a Biacore T200 (Cytiva, Marlborough, MA, USA). A streptavidin surface was prepared by amine coupling streptavidin to a CM5 chip using standard procedures in 20 mM HEPES, 150 mM NaCl pH 7.5 at 37 °C. Briefly, the surface was activated by injection of 1:1 NHS:EDC (N-ethyl-N’-(3-(dimethylamino)propyl)carbodiimide/N-hydroxysuccinimide) followed by a 7-min injection of 100 µg/mL streptavidin in 10 mM sodium acetate (pH 4.5) at a flow rate of 2 µL/min. Unreacted groups on the surface were blocked by injection of 1 M ethanolamine (pH 8.0). Purified recombinant CnArg1 was N-terminally biotinylated and immobilised to a level of ~4000 RU onto the streptavidin surface at 25 °C in 20 mM HEPES, 200 mM NaCl, 5 mM MgCl2 (pH 7.5) at a flow rate of 2 µL/min.
Sequence of CnArg1 (J9W3G0 entry or part of it): as above
For analysis, compounds were prepared to 50 mM in 100% DMSO and diluted to the desired concentration in SPR running buffer; 20 mM HEPES (pH 7.5), 200 mM NaCl, 5 mM MgCl2, 5% DMSO. Analysis was carried out using multi-cycle kinetics over a compound concentration range of 6.25–200 µM in running buffer at 10 °C, with an association time of 60 s and a dissociation time of 120 s. Data were reference subtracted, and a solvent correction applied. Analysis was carried out using Biacore T200 Evaluation Software and all data fit to a 1:1 Langmuir binding isotherm.
A general note: Surface plasmon resonance follows binding to a sensor surface in real time, without labels.

The subject of data set [10] is rat IPMK. Also on record: method as in PMID 24670057. Conditions: at a concentration of 10 µM; cited from earlier work.
Data set [11] deals with CaIpk2 (IP3-4K from C. albicans). In words: Kinase-Glo enzyme inhibition assay, recombinant CaIpk2. In kind it is biochemical, Candida albicans. Conditions: tested up to 50 µM; 10 µM ATP, 25 µM IP3. The method, then: as §2
as §3, with “Percent enzyme activity was defined as (RLUnegative − RLUsample)/(RLUnegative − RLUpositive) × 100. ‘Positive’ refers to 100% enzyme activity (no inhibitor used as the positive control), while ‘negative’ refers to 0% enzyme activity (no enzyme used as the negative control).” left out
Next, we determined the inhibitory properties of TNP. […] The amount of kinase that produced luminescence values in the linear range of the kinase titration curve was deemed to be the optimal kinase amount.

Data set [12] relates to IP6K. Also on record: method as in PMID 19208622. To be noted: read-out: IC50 against IP6K; cited from earlier work.
Data set [13] has as its system human IP3K. Also on record: method as in PMID 12210991. Conditions: read-out: IC50 against IP3K; cited from earlier work.

Each structure is given as a SMILES string. Entries after “also recorded” stand apart in the source; their conditions may differ. Like-named read-outs stand apart in the source and are kept apart here.

T1 sequence (Q8NFU5 whole entry): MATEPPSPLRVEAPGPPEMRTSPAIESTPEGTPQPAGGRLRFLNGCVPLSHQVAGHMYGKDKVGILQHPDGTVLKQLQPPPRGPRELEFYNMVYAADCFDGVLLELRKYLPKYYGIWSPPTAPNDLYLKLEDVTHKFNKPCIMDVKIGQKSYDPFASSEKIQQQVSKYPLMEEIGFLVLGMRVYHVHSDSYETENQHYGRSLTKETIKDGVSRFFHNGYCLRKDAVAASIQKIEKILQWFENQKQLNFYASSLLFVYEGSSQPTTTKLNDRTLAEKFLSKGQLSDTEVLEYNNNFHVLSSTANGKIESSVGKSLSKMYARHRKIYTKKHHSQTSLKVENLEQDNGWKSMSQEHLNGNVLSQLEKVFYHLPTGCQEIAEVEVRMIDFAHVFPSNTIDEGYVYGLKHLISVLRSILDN
Sequence of CaIpk2 (Q59YE9 1-350): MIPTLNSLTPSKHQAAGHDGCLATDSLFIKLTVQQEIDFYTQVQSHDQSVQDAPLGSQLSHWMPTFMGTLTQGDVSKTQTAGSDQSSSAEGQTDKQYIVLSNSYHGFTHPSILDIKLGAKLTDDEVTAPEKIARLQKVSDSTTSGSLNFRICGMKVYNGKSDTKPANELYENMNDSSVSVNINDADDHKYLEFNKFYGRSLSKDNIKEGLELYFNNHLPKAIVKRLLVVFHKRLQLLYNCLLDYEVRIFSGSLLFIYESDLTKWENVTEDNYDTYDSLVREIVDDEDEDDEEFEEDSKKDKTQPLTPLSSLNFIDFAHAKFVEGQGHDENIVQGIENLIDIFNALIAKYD

For orientation: Km means the concentration of substrate that gives half-maximal velocity. As to `Nc1ncnc2c1ncn2[C@@H]1O[C@H](COP(=O)(O)OP(=O)(O)OP(=O)(O)O)[C@@H](O)[C@H]1O` [ATP], the Km in data set [1] was 64 µM; in data set [2] (IP4 used as the substrate), 10 µM; in data set [2] (PIP2 used as the substrate), 61 ± 6 µM; in [4] (read-out: Km for ATP, HsIPMK, mean ± SEM) it was 128 ± 35 µM. In addition, in data set [3], the “Vmax, CaIpk2” value was found to be 21 ± 3 µmol ATP/mg protein/min. Moreover, in data set [4], the “Vmax, HsIPMK” value is 0.6 ± 0.07 µmol ATP/mg protein/min.
Usually IC50 stands for the point on the concentration scale where inhibition reaches its midpoint. For `FC(F)(F)c1cccc(CNc2nc(NCc3ccccc3)c3nc[nH]c3n2)c1` [Compound 9], the IC50 in data set [5] came out at 32 ± 3 µM; in data set [7], 28 ± 7 µM. In data set [6], the “HsIPMK/CnArg1 IC50 ratio” value amounted to 1.1. Besides, in [8], the “Solubility in SPR analysis” value is “Poor solubility—ND”.
As for `Cc1cccc(CNc2nc(NCc3ccccc3)c3nc[nH]c3n2)c1` [Compound 11], the “Solubility in enzyme assay conditions” value in [8] is “poorly soluble; also recorded: Low solubility—ND”.
As for `FC(F)(F)c1ccccc1CNc1nc(NCc2ccccc2)c2nc[nH]c2n1` [Compound 18], the “Solubility in enzyme assay conditions” value in [8] is reported as “poorly soluble; also recorded: Low solubility—ND”.
With `FC(F)(F)c1ccc(CNc2nc(NCc3ccccc3)c3nc[nH]c3n2)cc1` [Compound 19], the “Solubility in enzyme assay conditions” value in [8] is “poorly soluble; also recorded: Low solubility—ND”.
In the case of `COCCNc1nc(NCc2cccc(I)c2)nc2[nH]cnc12` [Compound 32], the IC50 is 48 ± 3 µM in [5] and 12 ± 1 µM in [7]. The “HsIPMK/CnArg1 IC50 ratio” value in [6] was 4.0.
For `COCCNc1nc(NCc2cccc(C(=O)OC)c2)nc2[nH]cnc12` [Compound 33] the same measures were 144 ± 55 µM, 38 ± 5 µM and 3.8.
Turning to `COCCNc1nc(Nc2ccc(O)cc2)nc2[nH]cnc12` [Compound 37], the IC50 in [5] stood at 7 ± 1 µM; in data set [7] it was 17 ± 2 µM. The KD result in data set [9] is listed as “No binding”. In addition, the “HsIPMK/CnArg1 IC50 ratio” value in data set [6] was found to be 0.4.
In the case of `COCCNc1nc(NCCc2ccc(OC)cc2)nc2[nH]cnc12` [Compound 39], the IC50 in data set [5] came out at 19 ± 1 µM; in data set [7], 22 ± 3 µM. For the same molecule, the “HsIPMK/CnArg1 IC50 ratio” value in data set [6] was 0.9.
For `COCCNc1nc(Nc2ccc(OC)cc2)nc2[nH]cnc12` [Compound 40] the same measures were 5 ± 1 µM, 14 ± 1 µM and 0.4.
With `FC(F)(F)c1cccc(CNc2nc(N3CCOCC3)c3nc[nH]c3n2)c1` [Compound 41], the figures for the IC50 in data set [5] and in data set [7] were 82 ± 9 µM and 24 ± 1 µM, respectively. Moreover, in [6], the “HsIPMK/CnArg1 IC50 ratio” value came out at 3.4.
Taken in the same sequence, the figures for `FC(F)(F)c1cccc(CNc2nc(NCc3cccnc3)c3nc[nH]c3n2)c1` [Compound 43] were 75 ± 8 µM, 27 ± 2 µM and 2.8.
With `O=[N+]([O-])c1ccc(CNc2nc(NCc3cccc(C(F)(F)F)c3)nc3[nH]cnc23)cc1` [TNP, N2-(m-trifluorobenzylamino)-N6-(p-nitrobenzylamino)purine], the “Inhibition of rat IPMK” value in [10] is recorded as “does not inhibit”. Besides, the “Inhibition of CaIpk2” value in data set [11] was “did not inhibit; also recorded: no inhibitory activity”. Also, the figures for the IC50 in data set [12] and in data set [13] were 0.47 µM and 10 µM, respectively. Besides, in data set [6], the “HsIPMK/CnArg1 IC50 ratio” value was 0.3. For the same molecule, in [8], the “Solubility in SPR analysis” value is given as “Poor solubility—ND”.
